Assay results taken from the METLIN SMRT retention time set (Domingo-Almenara et al. 2019).

Assay: gradient 5% acetonitrile 3 min, to 50% in 2 min, to 85% in 15 min, held 3 min, 100 µL/min
Conditions: column: Zorbax Extend-C18 2.1 x 50 mm; eluents: water / acetonitrile, 0.1% formic acid
Procedure, shortened: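 Data were gathered over 3 months by HPLC coupled to a quadrupole time-of-flight mass spectrometer, operated in positive and negative ionization mode. Mixtures of ~100 pure standards ran on a Zorbax Extend-C18 column (2.1 × 50 mm, 1.8 μm) at 100 μL/min, with water and acetonitrile each containing 0.1% formic acid and dead and dwell volumes of 40 μL and 900 μL. Retention time was read from adduct peaks picked by computer and checked manually.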

SMILES	RP-LC retention time
COC(=O)c1c(NCC(C)C)c2cc(F)ccc2[nH]c1=O	734 s
Cc1cccn2cc(-c3cccc(NS(=O)(=O)c4ccc(Cl)cc4)c3)nc12	686 s
CCOC(=O)CCC(=O)NCC1(c2ccc(OC)cc2)CCCC1	856 s
CCc1ccc2[nH]c3c(c(=O)c2c1)CN(CC(=O)NCc1cccc(Cl)c1)CC3	642 s
O=C(Nc1ccccc1F)NC1CCCN(c2cc(-c3ccncc3)[nH]n2)C1 (configuration not stated)	621 s
CCCCC(Sc1nc(=O)[nH]c(C)c1C(=O)OCC)C(=O)O (configuration not stated)	663 s
COc1ccc(Cl)cc1NC(=O)NC1CCN(c2ccc(C)cc2)C1=O (configuration not stated)	931 s
CC1(C(=O)NCc2ccccc2)CCN(S(=O)(=O)c2ccc(C3CCCCC3)cc2)CC1	1230 s
COc1cccc(NC(=O)NCCC2CCN(S(=O)(=O)c3ccccc3)CC2)c1	870 s
COc1ccc(CCc2nc3nccc(-c4cccnc4)n3n2)cc1	720 s
CCCc1nc(NCc2ccc(OC)c(OC)c2)ncc1C(=O)O	740 s
COc1ccc(OCc2nc(-c3ccc(NS(=O)(=O)c4cccs4)cc3)no2)cc1	1040 s
COc1ccc(-c2nnc(-c3ccccc3)o2)cc1S(=O)(=O)NC1CCCC1	966 s
COc1ccc(-c2nnc(-c3ccc(C)c(S(=O)(=O)NC(C)(C)CO)c3)o2)cc1OC	749 s
N#Cc1ccc(Cl)cc1NC(=O)C1CCN(c2ccc(-c3cccs3)nn2)CC1	702 s
CC(=O)N1CCc2cc(N3CC(C(=O)Nc4ccccc4OC(F)(F)F)CC3=O)ccc21 (configuration not stated)	766 s
O=C(NC1CCCCCC1)c1nc(Cn2c(=O)oc3ccc(Cl)cc32)no1	1050 s
O=C(CSc1cc(-n2cccn2)ncn1)Nc1cc(Cl)ccc1Cl	1090 s
O=C1CC(c2noc(-c3cc(F)cc(F)c3)n2)CN1c1ccc(Cl)cc1 (configuration not stated)	1100 s
O=C(NCC1CCCO1)c1ccc(-c2cnc(Oc3ccc(F)cc3)nc2)cc1 (configuration not stated)	793 s
Cc1ccc(C)c(N2CCN(c3ccnc(SCC(=O)Nc4cccc(Cl)c4)n3)CC2)c1	999 s
CCOc1nccnc1N1CCC(N(C)C(=O)c2ccc(C#N)cc2)C1 (configuration not stated)	751 s
COc1ccccc1Nc1nc(-c2ccc(Br)cc2)cs1	1340 s

Continued, values first:

RP-LC retention time	SMILES
666 s	CCCNC(=O)C1CCN(c2ccc(SCC(=O)Nc3ccccc3C(=O)OC)nn2)CC1
832 s	Cc1cc(C)cc(NC(=O)N2CCN(c3ccc(=O)n(-c4ccccc4)n3)CC2)c1
732 s	CCn1cnc(S(=O)(=O)N2CCC(C(=O)Nc3cccc4ccccc34)CC2)c1
893 s	CCn1nccc1C(=O)Nc1c(-c2ccccc2)nc2sc(N3CCCCC3)nn12
855 s	Cn1cc(C2=CCN(C(=O)Cc3ccccc3F)CC2)c2cccnc21
862 s	COc1ccc(C2Cn3cnc(C(=O)N4CCC(C(=O)NC5CCCCCCC5)CC4)c3CO2)cc1 (configuration not stated)
1020 s	O=C(Nc1ccccc1)N1CCN(c2nc(-c3ccccc3)ns2)CC1
795 s	COc1ccc(NC(=O)C2CCN(C(=O)C3Sc4ccccc4NC3=O)CC2)cc1Cl (configuration not stated)
622 s	Cn1c(=O)c(C(=O)N2CCCC2)nc2ccccc21
825 s	Cn1c(CCC(=O)NCc2ccc(C(F)(F)F)cc2)nc2ccccc2c1=O
689 s	CC(C)NC(=O)C1CCN(c2cnn(Cc3ccccc3)c(=O)c2)CC1
868 s	CC(=O)Oc1ccccc1C(=O)N1CCCc2ccccc21
689 s	O=C(Nc1ccccc1F)C1CCN(c2cc(N3CCCCC3)ncn2)CC1
567 s	CN(C)c1ncncc1N1CCC(C(=O)N2CCCC2)CC1
